Measurements taken from patent US20190224279A1, “PHARMACEUTICAL ASSOCIATION COMPRISING A GROWTH FACTOR RECEPTOR AGONIST CONJUGATED TO A BIOACTIVE CARRIER FOR CONVERTING A NEOPLASTIC CELL INTO A NON-NEOPLASTIC CELL AND USES THEREOF” (HISTIDE AG, priority 2015, published 2019).

Columns and labels:
[1] = system: Smad1/5/8 signaling pathway; test: Growth factor receptor activation: quantification of western blots of phospho-Smad1/5/8; format: cell-based; conditions: human osteosarcoma cells MG63; 400 ng/mL GFR-binding compound; Table 4
Protocol: After 24 hours of culture, cells were permeabilized (10% SDS, 25 mM NaCl, 10 nM pepstatin and 10 nM leupeptin in distilled water and loading buffer), boiled for 10 minutes and resolved by reducing PAGE (Invitrogen). Proteins were transferred onto nitrocellulose, blocked, and labeled with HRP-conjugated antibodies (Invitrogen). Integrin αv, α5, α3, α4, β1, β, β5 and […] were blotted by treating the nitrocellulose with monoclonal anti-integrin (extracellular domain) αv, α5, α3, α4, β1, β3, β5 and β6 antibodies (Santa Cruz Biotechnology). Phosphor-Smad1/5/8 was blotted by treating the nitrocellulose with monoclonal anti-p-Smad1/5/8 (Santa Cruz Biotechnology). For all of the experiments the western blot was performed in triplicate, along with an additional blot for actin and coomassie blue staining to ensure constant protein load among samples.

[2] = system: human osteosarcoma cells, MG63; test: Tumor cell recoding via quantification of pRB (immunofluorescence, ImageJ); format: cell-based
Protocol: The cells were first fixed for 20 min with 4% paraformaldehyde/PBS at 4° C. After fixation, the cells were permeabilized in PBS containing 1% Triton X-100 for 15 min. Protein immunofluorescent visualization was performed by first treating the cells with 1% (v/v) specific monoclonal antibodies for 1 hour at 37° C. Then the samples were incubated with Alexa Fluor® 568 or 647 (F(ab′)2 fragment of IgG(H+L)) during 30 min at room temperature. The cell nuclei were counterstained in 20 ng/mL DAPI for 10 min at room temperature.
For this type of quantification the freeware image analysis ImageJ® software was used. The raw image was first converted to an 8-bit file, and then the unsharp mask feature was used (settings 1:0.2) to remove the image background (rolling ball radius 10). After smoothing, the resulting image, which appears similar to the original photomicrograph but with minimal background, was then converted to a binary image by setting a threshold. Threshold values were determined empirically by selecting a setting, which gave the most accurate binary image for a subset of randomly selected photomicrographs. The cell area was determined by manual delineation on raw fluorescent images. Total contact area and mean contact area per cell were calculated by “analyse particules” in ImageJ®. A minimum of 50 cells per condition were analyzed.
Neoplastic cells (in this example osteosarcoma cells) were cultured on pharmaceutical associations comprising PET as a bioactive carrier and one of GFR-binding compounds of SEQ ID NO: 11 to 14, 24 to 26 and 51 to 63. A rapid (24 hours) decrease of the tumor markers was observed (FIG. 7). The adhesion checkpoint then activates the tumor suppressor proteins p53 and pRB. […]

VPTHHSAISTLYLELAGEKPLKNYQFLQHNK (Non-cyclic GFR-binding peptide) [SEQ ID NO: 96]
p-Smad1/5/8 (%) [1]: 47% | pRB (%) ([2]; Table 4): 7% | pRB (%) ([2]; Table 5): 7%

ASASPSSVPQDLEPLTILYYVGRTPKVEQLSNMVEDH (Non-cyclic GFR-binding peptide) [SEQ ID NO: 80]
p-Smad1/5/8 (%) [1]: 34% | pRB (%) ([2]; Table 4): 17% | pRB (%) ([2]; Table 5): 17%

VPQALSPISILYIDDMGVPTYKQYEEGMSVAE (Non-cyclic GFR-binding peptide) [SEQ ID NO: 68]
p-Smad1/5/8 (%) [1]: 39% | pRB (%) ([2]; Table 4): 7% | pRB (%) ([2]; Table 5): 7%

VPARLSPISILYIDAANNVVYKQYEDMVKS (Non-cyclic GFR-binding peptide) [SEQ ID NO: 93]
p-Smad1/5/8 (%) [1]: 44% | pRB (%) ([2]; Table 4): 8% | pRB (%) ([2]; Table 5): 8%

RNVQCRPTQLEPLPIVYYEIVRKKPEQLSNTLEDHLA [SEQ ID NO: 66] (Non-cyclic GFR-binding peptide)
p-Smad1/5/8 (%) [1]: 38% | pRB (%) ([2]; Table 4): 21% | pRB (%) ([2]; Table 5): 21%

APTKLEPLPMVYYEERRNVIEQLSNNMVVR (Non-cyclic GFR-binding peptide) [SEQ ID NO: 86]
p-Smad1/5/8 (%) [1]: 34% | pRB (%) ([2]; Table 4): 11% | pRB (%) ([2]; Table 5): 11%

APTQLSAISTLYLEIVRKKPLKNYQEMEDH (Non-cyclic GFR-binding peptide) [SEQ ID NO: 78]
p-Smad1/5/8 (%) [1]: 58% | pRB (%) ([2]; Table 4): 20% | pRB (%) ([2]; Table 5): 20%

VPTELSPISILFIRIKPHQGHLGEMSAAVVE (Non-cyclic GFR-binding peptide) [SEQ ID NO: 70]
p-Smad1/5/8 (%) [1]: 30% | pRB (%) ([2]; Table 4): 24% | pRB (%) ([2]; Table 5): 24%

VPEKMSSLSILFFDENKNAALKVYPNMTVE (Non-cyclic GFR-binding peptide) [SEQ ID NO: 92]
p-Smad1/5/8 (%) [1]: 52% | pRB (%) ([2]; Table 4): 8% | pRB (%) ([2]; Table 5): 8%

TQVQLEPLTLLYYDENEKVIEQLSNDMVVE (Non-cyclic GFR-binding peptide) [SEQ ID NO: 71]
p-Smad1/5/8 (%) [1]: 47% | pRB (%) ([2]; Table 4): 19% | pRB (%) ([2]; Table 5): 19%

VPQALNAISTLYFDDSSNVILKKYRNMAVS (Non-cyclic GFR-binding peptide) [SEQ ID NO: 72]
p-Smad1/5/8 (%) [1]: 48% | pRB (%) ([2]; Table 4): 11% | pRB (%) ([2]; Table 5): 11%

VPTELSPISILFIVGGKPKVYKQYENMVVE (Non-cyclic GFR-binding peptide) [SEQ ID NO: 90]
p-Smad1/5/8 (%) [1]: 36% | pRB (%) ([2]; Table 4): 17% | pRB (%) ([2]; Table 5): 17%

APTQLSAISTLYLEIVRKKPLKNYQFLQHNK (Non-cyclic GFR-binding peptide) [SEQ ID NO: 77]
p-Smad1/5/8 (%) [1]: 52% | pRB (%) ([2]; Table 4): 14% | pRB (%) ([2]; Table 5): 14%

TPTKMSPINMLYFNEKNNIIYGKIPGMVVD (Non-cyclic GFR-binding peptide) [SEQ ID NO: 76]
p-Smad1/5/8 (%) [1]: 55% | pRB (%) ([2]; Table 4): 15% | pRB (%) ([2]; Table 5): 15%

ASASPSSVPQDLEPLTILYYVGRTPKVEQLSNMV (Non-cyclic GFR-binding peptide) [SEQ ID NO: 65]
p-Smad1/5/8 (%) [1]: 38% | pRB (%) ([2]; Table 4): 18% | pRB (%) ([2]; Table 5): 18%

SRVHHNAISTLYFDESSNVILKKYRGMSVVE (Non-cyclic GFR-binding peptide) [SEQ ID NO: 91]
p-Smad1/5/8 (%) [1]: 56% | pRB (%) ([2]; Table 4): 9% | pRB (%) ([2]; Table 5): 9%

VPEKMSSLSILFFDENKNVVLKVYPNMAVS (Non-cyclic GFR-binding peptide) [SEQ ID NO: 73]
p-Smad1/5/8 (%) [1]: 44% | pRB (%) ([2]; Table 4): 17% | pRB (%) ([2]; Table 5): 17%

VPQALSPISILFIRLKPHQGHLGEMSNMVVR (Non-cyclic GFR-binding peptide) [SEQ ID NO: 85]
p-Smad1/5/8 (%) [1]: 26% | pRB (%) ([2]; Table 4): 24% | pRB (%) ([2]; Table 5): 24%

VPQALSPINMLYFNEKNQIIYGKIPFLQHNK (Non-cyclic GFR-binding peptide) [SEQ ID NO: 75]
p-Smad1/5/8 (%) [1]: 54% | pRB (%) ([2]; Table 4): 8% | pRB (%) ([2]; Table 5): 8%

APTKLEPLTIVYYDDSSNVIEQLSNNMVVR (Non-cyclic GFR-binding peptide) [SEQ ID NO: 88]
p-Smad1/5/8 (%) [1]: 32% | pRB (%) ([2]; Table 4): 21% | pRB (%) ([2]; Table 5): 21%

VPTEESNITTQIMRIKPHQGQHIGEMSFLQH [SEQ ID NO: 84] (Non-cyclic GFR-binding peptide)
p-Smad1/5/8 (%) [1]: 22% | pRB (%) ([2]; Table 4): 10% | pRB (%) ([2]; Table 5): 10%

VPARLSPISILYIDEMGVPTYKQYEEGMSVAE (Non-cyclic GFR-binding peptide) [SEQ ID NO: 83]
p-Smad1/5/8 (%) [1]: 33% | pRB (%) ([2]; Table 4): 9% | pRB (%) ([2]; Table 5): 9%

NDEGLECVPTEERPVQVRKIRIKPHQGQKKATVFLQHNK [SEQ ID NO: 64] (Non-cyclic GFR-binding peptide)
p-Smad1/5/8 (%) [1]: 36% | pRB (%) ([2]; Table 4): 14% | pRB (%) ([2]; Table 5): 14%

TPTKMSPINMLYFNEKNNIIYGKIPGM (Non-cyclic GFR-binding peptide) [SEQ ID NO: 94]
p-Smad1/5/8 (%) [1]: 41% | pRB (%) ([2]; Table 4): 20% | pRB (%) ([2]; Table 5): 20%

VPQALSPISILFIVGRKPKVYKQYEMIVERS (Non-cyclic GFR-binding peptide) [SEQ ID NO: 89]
p-Smad1/5/8 (%) [1]: 41% | pRB (%) ([2]; Table 4): 18% | pRB (%) ([2]; Table 5): 18%

VPARLSPISILYIDAANNVVYKQYEDM (Non-cyclic GFR-binding peptide) [SEQ ID NO: 74]
p-Smad1/5/8 (%) [1]: 51% | pRB (%) ([2]; Table 4): 10% | pRB (%) ([2]; Table 5): 10%

VPTHHSAISMLYLELGGDKPLENYQFLQ (Non-cyclic GFR-binding peptide) [SEQ ID NO: 97]
p-Smad1/5/8 (%) [1]: 46% | pRB (%) ([2]; Table 4): 9% | pRB (%) ([2]; Table 5): 9%

NDEGLECVPTEERPVQVRKIRIKPHQGQKKATVFLQHNK [SEQ ID NO: 79] (Non-cyclic GFR-binding peptide)
p-Smad1/5/8 (%) [1]: 27% | pRB (%) ([2]; Table 4): 21% | pRB (%) ([2]; Table 5): 21%

RNVQCRPTQLEPLPIVYYEIVRKKPEQLSNTLEDHLA [SEQ ID NO: 81] (Non-cyclic GFR-binding peptide)
p-Smad1/5/8 (%) [1]: 41% | pRB (%) ([2]; Table 4): 19% | pRB (%) ([2]; Table 5): 19%

VPTEESNITTQIMRIKPHQGQHIGEMSFLQH [SEQ ID NO: 69] (Non-cyclic GFR-binding peptide)
p-Smad1/5/8 (%) [1]: 32% | pRB (%) ([2]; Table 4): 23% | pRB (%) ([2]; Table 5): 23%

VPTKLSAISTLYLDLAREEPLKNYQEMVVE (Non-cyclic GFR-binding peptide) [SEQ ID NO: 87]
p-Smad1/5/8 (%) [1]: 38% | pRB (%) ([2]; Table 4): 16% | pRB (%) ([2]; Table 5): 16%

VSQDLSAISTLYLKIVRKEPLKNYQEMVEE (Non-cyclic GFR-binding peptide) [SEQ ID NO: 98]
p-Smad1/5/8 (%) [1]: 39% | pRB (%) ([2]; Table 4): 9% | pRB (%) ([2]; Table 5): 9%

VPTKLSPISILYIDDMGVPTYKQYEEGMSVAE (Non-cyclic GFR-binding peptide) [SEQ ID NO: 67]
p-Smad1/5/8 (%) [1]: 40% | pRB (%) ([2]; Table 4): 9% | pRB (%) ([2]; Table 5): 9%

RNVQCRPTQLEPLPIVYYEIVRKKPEQLSNTLE (Non-cyclic GFR-binding peptide) [SEQ ID NO: 95]
p-Smad1/5/8 (%) [1]: 29% | pRB (%) ([2]; Table 4): 8% | pRB (%) ([2]; Table 5): 8%

VPTKLSPISILYIDKMGVPTYKQYEEGMSVAE (Non-cyclic GFR-binding peptide) [SEQ ID NO: 82]
p-Smad1/5/8 (%) [1]: 35% | pRB (%) ([2]; Table 4): 16% | pRB (%) ([2]; Table 5): 16%
